Measurements from PMC10980263, “Cryo-EM structures of the human NaS1 and NaDC1 transporters revealed the elevator transport and allosteric regulation mechanism” (Science Advances, 2024).
Residue numbers refer to the chain shown, from its start.

Tests used:
NaDC1 [1] = biological target: T1, NaDC1 (Homo sapiens, UniProt Q13183); assay: CD thermal melting at […] nm; type: binding; set-up: gene SLC13A2; full length, homodimer; N-terminal FLAG purified from HEK293F (structures, natural variant I550V); GFP and FLAG tagged in HEK293T for currents; conditions: absolute Tm in presence of citrate, not a shift; whether WT carries I550V not stated
T1 sequence (Q13183 1-592): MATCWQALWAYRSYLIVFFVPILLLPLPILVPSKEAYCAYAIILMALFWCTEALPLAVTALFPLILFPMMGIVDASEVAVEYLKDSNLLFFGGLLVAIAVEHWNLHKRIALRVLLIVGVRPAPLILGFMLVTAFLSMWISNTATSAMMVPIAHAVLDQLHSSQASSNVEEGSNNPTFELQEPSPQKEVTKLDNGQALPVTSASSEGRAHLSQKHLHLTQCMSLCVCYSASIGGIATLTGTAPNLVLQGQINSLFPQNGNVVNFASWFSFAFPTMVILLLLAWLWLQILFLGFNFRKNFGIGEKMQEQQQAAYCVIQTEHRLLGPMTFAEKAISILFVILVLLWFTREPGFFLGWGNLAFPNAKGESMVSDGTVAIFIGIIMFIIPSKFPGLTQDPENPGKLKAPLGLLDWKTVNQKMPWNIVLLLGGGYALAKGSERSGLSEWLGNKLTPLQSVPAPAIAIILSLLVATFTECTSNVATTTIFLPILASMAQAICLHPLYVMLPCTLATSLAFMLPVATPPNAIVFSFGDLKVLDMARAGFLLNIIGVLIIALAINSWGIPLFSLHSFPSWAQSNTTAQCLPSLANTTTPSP

NaDC1 [2] = biological target: T2, NaDC1 (Homo sapiens, UniProt Q13183, R108A); assay: whole-cell patch clamp, transfected HEK293T; type: cell-based; conditions: citrate-induced current; 140 mM NaCl bath, pH 7.4
T2 construct: gene SLC13A2; full length, homodimer; N-terminal FLAG purified from HEK293F (structures, natural variant I550V); GFP and FLAG tagged in HEK293T for currents
T2 sequence (Q13183 1-592 R108A): T1 sequence (Q13183 1-592) with R108A

NaDC1 [3] = biological target: T3, NaDC1 (Homo sapiens, UniProt Q13183, N141A); assay: CD thermal melting at […] nm; type: binding; conditions: absolute Tm in presence of citrate, not a shift
T3 construct: gene SLC13A2; full length, homodimer; N-terminal FLAG purified from HEK293F (structures, natural variant I550V); GFP and FLAG tagged in HEK293T for currents
T3 sequence (Q13183 1-592 N141A): T1 sequence (Q13183 1-592) with N141A

NaDC1 [4] = biological target: T1, NaDC1; assay: whole-cell patch clamp, transfected HEK293T; type: cell-based; set-up: gene SLC13A2; full length, homodimer; GFP and FLAG tagged in HEK293T for currents; conditions: gradient of citrate concentrations; 140 mM NaCl bath, pH 7.4
NaDC1 [5] = biological target: T4, NaDC1 (Homo sapiens, UniProt Q13183, N476A); assay: CD thermal melting at […] nm; type: binding; conditions: absolute Tm in presence of citrate, not a shift
T4 construct: gene SLC13A2; full length, homodimer; N-terminal FLAG purified from HEK293F (structures, natural variant I550V); GFP and FLAG tagged in HEK293T for currents
T4 sequence (Q13183 1-592 N476A): T1 sequence (Q13183 1-592) with N476A

Question: For `O=C(O)CC(O)(CC(=O)O)C(=O)O` [citrate], which Tm (NaDC1 [1]) is on record?
Answer: Its Tm is 62.9 ± 0.3 °C.

Question: What about the “whole-cell patch clamp, transfected HEK293T” value (NaDC1 [2]) of the same compound?
Answer: The value was “The R108A mutant substantially reduced the citrate-induced current than WT in NaDC1”.

Question: What about the Tm (NaDC1 [3]) of the same compound?
Answer: Its Tm is 61.3 ± 0.5 °C.

Question: And the “whole-cell patch clamp, transfected HEK293T” value (NaDC1 [4])?
Answer: The value was “wild-type (WT) NaDC1 is indeed capable of transporting citrate”.

Question: What about the Tm (NaDC1 [5]) of the same compound?
Answer: Its Tm is 60.5 ± 0.7 °C.
